Laboratory results from patent publication US6613937B2, “S-nitroso- and S-nitro-N-acyl-L-cysteine ester derivatives as pharmalogically active agents and pharmaceutical compositions containing said compounds” (priority 1999, dated 2003).

What was measured:
[1] = humans; cited from earlier work
[2] = in vitro and in vivo, humans; cited from earlier work
human Corpus Cavernosum = experiment: Relaxation of the human Corpus Cavernosum in vitro; settings: FIG. 1a
From the text: A. Relaxation of the Human Corpus Cavernosum in vitro by Means of S-nitroso-N-acetylcysteine ethyl ester, S-nitroso-N-(O-acetylsalicyl)cysteine ethyl ester and Their Metabolites
a. Relaxation of the human Corpus Cavernosum in vitro by S-nitroso-N-acetylcysteine-ethylester (SNACET), S-nitroso-N-(O-acetylsalicyl)cysteine ethyl ester (ASS-SNCET) and their metabolites SNCET and SNAC.

human blood platelets = experiment: Inhibition of collagen-induced aggregation of washed human blood platelets in vitro; format: cell-based; settings: Platelet, collagen-induced (2 μg/ml)
Procedure: Inhibition of the Aggregation of Human Blood Platelets in vitro by Means of S-nitroso-N-acetylcysteine ethyl ester (SNACET) and S-nitroso-N-(O-acetylsalicyl)cysteine ethyl ester (ASS-SNCET)
(§1) Collagen-induced (2 μg/ml) aggregation and thromboxane synthesis in human blood platelets which have been washed are inhibited by SNACET in a concentration-dependent manner (FIG. 4a). The IC50s for the inhibition of the platelet aggregation and the thromboxane synthesis by SNACET are determined at 1 and 0.5 μM. Collagen-induced (2 μg/ml) aggregation of human blood platelets that have been washed is inhibited by ASS-SNCET in a concentration-dependent manner (FIG. 4b). The IC50 for the inhibition of the platelet aggregation by ASS-SNCET is determined at 2 μM (FIG. 4b).
(§2) a. Inhibition of the collagen-induced (2 μg/ml) aggregation of human blood platelets that have been washed and the thromboxane synthesis in the platelets in vitro by S-nitroso-N-acetylcysteine ethyl ester (SNACET).
b. Inhibition of the collagen-induced (2 μg/ml) aggregation of human blood platelets in vitro that have been washed by S-nitroso-N-(O-acetylsalicyl)cysteine ethyl ester (ASS-SNCET). The values are average values from analyses with platelets of four healthy subjects.

[3] = system: thromboxane synthesis in human blood platelets; experiment: Inhibition of collagen-induced thromboxane synthesis in washed human blood platelets in vitro; format: cell-based; settings: Platelet, collagen-induced (2 μg/ml)
Procedure: as §1, §2

Sprague Dawley rat = experiment: Hypotensive effect in vivo in the rat (i.v. infusion, average artery blood pressure); settings: anaesthetised male Sprague Dawley rat, FIG. 3
From the text: Hypotensive Effect of SNACET in vivo in the Rat
S-nitroso-N-acetylcysteine-ethylester (SNACET) is applied i.v. to a male, anaesthetised Sprague Dawley rat which has a weight of 400 g. Before and after the infusion, the average artery blood pressure is taken continuously.
Hypotensive effect of SNACET in vivo in the rat. SNACET was applied i.v. with the infusion rates stated.

human arteria mammaria = experiment: Relaxation of the human arteria mammaria in vitro; settings: FIG. 1b
From the text: B. Relaxation of the Human Arteria Mammaria in vitro by S-nitroso-N-acetylcysteine ethyl ester and S-nitro-N-acetylcysteine ethyl ester
b. Relaxation of the human arteria mammaria in vitro by S-nitroso-N-acetylxysteine ethyl ester (SNACET) and S-nitro-N-acetylcysteine ethyl ester (SNO2ACET).

[4] = Penetration by human Tunica albuginea in vitro in a Franz' cell; format: in vitro ADME; settings: SNACET in dimethyl sulphoxide, FIG. 2
Procedure: Penetration of S-nitroso-N-acetylsysteine ethyl ester (SNACET) by Human Tunica albuginea in vitro
Part of Tunica albuginea which has just been prepared is fixed in a Franz' cell. The active surface is 1.77 cm^2. The acceptor phase (10 ml) consists of Hank's buffer (pH 7.4), human albumin (30 g/l), penicillin G (100 units) and streptomycin (10 μg) and is stirred with a magnetic stirrer at a constant rotation speed. The penetration is started by application of solutions of SNACET in dimethyl sulphoxide at various concentrations (0.25 ml) on the part of the skin. At various points in time, samples are taken from the acceptor phase and the concentration of the sum from SNACET and its metabolites is determined. In the acceptor phase, unmodified SNACET and other metabolites including nitrite are detected. […] The penetration rate and the amount of the penetrated SNACET and their metabolites in the acceptor phase depend on the amount of SNACET applied onto the Tunica albuginea. The lag time is approximately 20 min. In the linear region, the penetration rates are 1.0, 2.5 or 5.0 μmol SNACET/hour.
Penetration of S-nitroso-N-acetylcysteine ethyl ester (SNACET) by human Tunica albuginea in vitro in a Franz' cell. Three different amounts dissolved in dimethyl sulphoxide (250 μl each) were applied (see Legend).

[5] = In vivo metabolism of orally applied 15N-marked SNACET in the rat (urine, GC-MS); settings: oral 17.5 mg/kg
Procedure: In vivo Metabolism of Orally Applied ^15N-marked S-nitroso-N-acetylcysteine ethyl ester (^15N-SNACET) in the Rat
A male Sprague Dawley rat weighing 480 g is orally given 17.5 mg of ^15N-marked S-nitroso-N-acetylcysteine ethyl ester (^15N-SNACET) per kg body weight, dissolved in 1 ml of a 10% (w/v) glucose solution in drinking water. Before and up to 24 hours after application, urine is collected and the ^15N-concentration of nitrate, nitrite and S-nitroso metabolites of ^15N-SNACET is determined by means of GC-MS.
Metabolism of orally applied ^15N-marked S-nitroso-N-acetylcysteine-ethylester (17.5 mg/kg body weight) in a rat. ^15N-concentration of nitrate, nitrite and for the sum of ^15N-marked S-nitroso-N-acetylcysteine ethyl ester and its metabolites collected in the urine before and up to 24 hours after the application.

[6] = in vivo in an animal; cited from earlier work

Compound: N[C@@H](CCC(=O)N[C@@H](CSN=O)C(=O)NCC(=O)O)C(=O)O [S-nitroso glutathion, S-nitroso-L-glutathion]
- Rate of embolism [1]: reduces the rate of embolism in humans
- Anti-hypertensive and anti-aggregatory effect [2]: have an anti-hypertensive and an anti-aggregatory effect in humans

Compound: CC(=O)N[C@@H](CSN=O)C(=O)O [SNAC, S-nitroso-N-acetylcysteine]
- Relaxation of human Corpus Cavernosum (human Corpus Cavernosum): relax human Corpus Cavernosum in vitro in a concentration-dependent manner

Compound: CCOC(=O)[C@H](CSN=O)NC(C)=O [SNACET, S-nitroso-N-acetylcysteine ethyl ester]
- IC50 (human blood platelets): 1000 nM
- Relaxation of human Corpus Cavernosum (human Corpus Cavernosum): relax human Corpus Cavernosum in vitro in a concentration-dependent manner
- IC50 [3]: 500 nM
- Average artery blood pressure (Sprague Dawley rat): the average artery blood pressure decreases in dependence on the infusion rate
- Relaxation of human arteria mammaria (human arteria mammaria): relax human arteria mammaria in vitro in a concentration-dependent manner
- Penetration of the Tunica albuginea [4]: penetrates the Tunica albuginea

Compound: CCOC(=O)[C@@H](N)CSN=O [SNCET, S-nitroso-cysteine ethyl ester]
- Relaxation of human Corpus Cavernosum (human Corpus Cavernosum): relax human Corpus Cavernosum in vitro in a concentration-dependent manner

Compound: CCOC(=O)[C@H](CS[N+](=O)[O-])NC(C)=O [SNO2-ACET, S-nitro-N-acetylcysteine ethyl ester]
- Relaxation of human arteria mammaria (human arteria mammaria): relax human arteria mammaria in vitro in a concentration-dependent manner

Compound: CCOC(=O)[C@H](CS[15N]=O)NC(C)=O [^15N-SNACET, ^15N-marked S-nitroso-N-acetylcysteine ethyl ester]
- Time of the highest 15N-concentration in urine [5]: within the first two hours
- 15N-concentration in the urine 24 hours after the administration ([5]; 24 hours): insignificantly higher than the natural occurrence of ^15N
- Main metabolite in urine ([5]; urine up to 24 hours): ^15N-nitrate
- Secretion of unchanged compound and S-nitroso metabolites into the urine ([5]; urine up to 24 hours): neither ^15N-SNACET no other S-[^15N]nitroso-containing metabolites are secreted into the urine

Compound: S-nitroso-N-acetyl penicillamines [SNAP]
- Development of tolerance [6]: show no development of tolerance
